A short description of data set [1]: Physical form: liquid crystalline behaviour in aqueous solution. It is filed as physicochemical. As to conditions: for Dye (1) at a dye concentration of above about 25% by weight. The source says:
This is anticipated to correspond to enhanced stability against precipitation and reduced dye degradation for concentrated solutions containing the compounds used in the present invention. The difference in liquid crystalline behaviour is surprising given the structural similarity of Dye (1) and Comparative Dye (1).

Data set [2] can be described thus: Solubility of dye in water. The format is physicochemical.

For `O=C(O)c1cc(/N=N/c2ccc(Nc3nc(Nc4ccc(/N=N/c5cc(S(=O)(=O)O)c6cccc(S(=O)(=O)O)c6c5)cc4)nc(N(CCO)CCO)n3)cc2)cc(C(=O)O)c1` [Dye (1)], the liquid crystalline behaviour entry in data set [1] is reported as “exhibited liquid crystalline characteristics”. Further, in data set [2], the solubility in water is 30 % of dye by weight. Besides, the “solubility in water relative to Comparative Dye (1)” value in data set [2] (ratio to Comparative Dye (1)) is on record as “twice”.

Regarding `O=C(O)c1cc(/N=N/c2ccc(Nc3nc(NCCO)nc(Nc4ccc(/N=N/c5cc(S(=O)(=O)O)c6cccc(S(=O)(=O)O)c6c5)cc4)n3)cc2)cc(C(=O)O)c1` [Comparative Dye (1), reference compound], the liquid crystalline behaviour entry in data set [1] is given as “no liquid crystalline behaviour”. Besides, the solubility in water in data set [2] is recorded as 15 % of dye by weight.

Values taken from patent US7927411B2, “Compound, ink, process and use” (Fujifilm Imaging Colorants Limited, priority 2007, dated 2011).
